{
  "source": "patent US6713266B1",
  "about": "(Isodiagnostika Inc., priority 1998, dated 2004)",
  "key": {"MoAb CSA-1H6": {"tested_on": "MoAb CSA-1H6", "experiment": "Inhibition ELISA to the CSA-DVS-HSA conjugate, MoAb", "format": "binding, mouse", "protocol": "(§1) Inhibition ELISA Protocol:\n(§2) 1. Use Falcon Pro-bind immunoplates.\n(§3) 2. Dilute coating antigen to 1 μg/mL in carbonate-bicarbonate buffer. Add 100 μL per well and incubate overnight at 4° C.\n(§4) 3. On the same day prepare inhibiting antigen tubes. Aliquot antibodies into glass test tubes. Prepare appropriate antigen concentration in ethanol and add to aliquoted antibody at 10 μL ethanol solution/250 μL antibody. Vortex tubes and incubate overnight at 4° C.\n(§5) 4. Shake out wells and wash 3× with 200 μL PBS/0.05% TWEEN™ (polyoxyethylene-sorbitol) (v/v) per well.\n(§6) 5. Add 200 μL blocking buffer per well (PBS/2% BSA (w/v)). Incubate 60 min at room temperature.\n(§7) 7. Transfer contents of inhibition tubes to antigen-coated plate, 100 μL per well. Incubate 60 min at 37° C.\n(§8) 9. Dilute alkaline phosphatase conjugated anti-mouse IgG (Pierce cat#31322) in PBS/0.1% TWEEN™ (polyoxyethylene-sorbitol) (v/v) to 1:5000 concentration. Add 100 μL per well and incubate at 37° C. for 60 min.\n(§9) 11. […] Add 100 μL per well and incubate in the dark at room temperature. Absorbance can be read at 405 nm at approximately 15-min intervals."}, "MoAb CSA-2G9": {"tested_on": "MoAb CSA-2G9", "experiment": "Inhibition ELISA to the CSA-DVS-HSA conjugate, MoAb", "format": "binding, mouse", "protocol": "as §1, §2, §3, §4, §5, §6, §7, §8, §9"}, "MoAb AM1-2E10": {"tested_on": "MoAb AM1-2E10", "experiment": "Inhibition ELISA to the CSA-DVS-HSA conjugate, MoAb", "format": "binding, mouse", "protocol": "as §1, §2, §3, §4, §5, §6, §7\n(§10) 9. […] Add 100 μL per well and incubate at 37° C. for 60 min.\nas §9"}, "MoAb AM1-7F5": {"tested_on": "MoAb AM1-7F5", "experiment": "Inhibition ELISA to the CSA-DVS-HSA conjugate, MoAb", "format": "binding, mouse", "protocol": "as §1, §2, §3, §4, §5, §6, §7, §10, §9"}, "[1]": {"tested_on": "Mouse polyclonal sera (CSA-DVS-KLH immunogen)", "experiment": "Inhibition ELISA, CSA-DVS-HSA coated plate, mouse polyclonal sera", "format": "binding", "conditions": "Mouse sera; Table 3; inhibition ELISA to the CSA-DVS-HSA conjugate", "protocol": "as §1, §2, §3, §4, §5, §6, §7, §10, §9"}, "[2]": {"tested_on": "Mouse polyclonal sera (AM1-DVS-KLH immunogen)", "experiment": "Inhibition ELISA to the CSA-DVS-HSA conjugate, mouse polyclonal sera", "format": "binding", "protocol": "as §1, §2, §3, §4, §5, §6, §7, §10, §9"}, "[3]": {"tested_on": "Mouse polyclonal sera (AM19-1-DVS (1) - KLH immunogen)", "experiment": "Inhibition ELISA, AM19-1-DVS (1) HSA coated plate, mouse polyclonal sera", "format": "binding", "protocol": "as §1, §2, §3, §4, §5, §6, §7, §10, §9"}, "[4]": {"tested_on": "Mouse polyclonal sera (AM19-1-DVS (2) - KLH immunogen)", "experiment": "Inhibition ELISA, AM19-1-DVS (2) HSA coated plate, mouse polyclonal sera", "format": "binding", "protocol": "as §1, §2, §3, §4, §5, §6, §7, §10, §9"}, "[5]": {"tested_on": "Rabbit polyclonal sera (AM19-1-DVS-KLH (1) immunogen)", "experiment": "Inhibition ELISA, AM19-1-DVS (1) HSA coated plate, rabbit polyclonal sera", "format": "binding", "protocol": "as §1, §2, §3, §4, §5, §6, §7, §10, §9\nThe AM19-1-DVS (1) conjugate was also used to immunize rabbits."}, "[6]": {"tested_on": "Mouse polyclonal sera (AM19-9-DVS-KLH immunogen)", "experiment": "Inhibition ELISA, AM19-9-DVS-HSA coated plates, mouse polyclonal sera", "format": "binding", "protocol": "as §1, §2, §3, §4, §5, §6, §7, §10, §9"}, "[7]": {"tested_on": "Mouse polyclonal sera (AM9-9-DVS-KLH immunogen)", "experiment": "Inhibition ELISA, AM19-9-DVS-HSA coated plate, mouse polyclonal sera", "format": "binding", "protocol": "as §1, §2, §3, §4, §5, §6, §7, §10, §9"}, "MoAb AM19-1-7E12-1": {"tested_on": "MoAb AM19-1-7E12-1", "experiment": "Inhibition ELISA with AM19-1-DVS (1) coated ELISA plates, MoAb", "format": "binding, mouse", "conditions": "AM19-1-7E12-1 TCS", "protocol": "as §1, §2, §3, §4, §5, §6, §7, §10, §9"}, "MoAb AM19-1-7E12-2": {"tested_on": "MoAb AM19-1-7E12-2", "experiment": "Inhibition ELISA with AM19-1-DVS (1) coated ELISA plates, MoAb", "format": "binding, mouse", "conditions": "AM19-1-7F12-2", "protocol": "as §1, §2, §3, §4, §5, §6, §7, §10, §9"}},
  "note": "Values joined by “and” are separate entries in the source; they are usually repeats but may differ in a detail not shown here. Identical values can stand only once.",
  "data": [
    {"compound": "C/C=C/C[C@@H](C)[C@@H](O)[C@H]1C(=O)N[C@@H](CCC)C(=O)N(C)CC(=O)N(C)[C@@H](CC(C)C)C(=O)N[C@@H](C(C)C)C(=O)N(C)[C@@H](CC(C)C)C(=O)N[C@@H](C)C(=O)N[C@H](C)C(=O)N(C)[C@@H](CC(C)C)C(=O)N(C)[C@@H](CC(C)C)C(=O)N(C)[C@@H](C(C)C)C(=O)N1C", "note": "[CSG, cyclosporine G]", "values": [
      {"measurement": "Percent Inhibition", "setting": "MoAb CSA-1H6; CSA-1H6, Table 24, CSA, CSG and CSA derivative inhibitors", "result": 88.6, "unit": "%"},
      {"measurement": "Percent Inhibition", "setting": "MoAb CSA-2G9; CSA-2G9, Table 24, CSA, CSG and CSA derivative inhibitors", "result": 89.8, "unit": "%"},
      {"measurement": "Percent Inhibition", "setting": "MoAb AM1-2E10; AM1-2E10, Table 24, CSA, CSG and CSA derivative inhibitors", "result": "61% and 61.2%"},
      {"measurement": "Percent Inhibition", "setting": "MoAb AM1-7F5; AM1-7F5, Table 24, CSA, CSG and CSA derivative inhibitors", "result": 28.8, "unit": "%"}
    ]},
    {"compound": "C=CC[C@@H]1/C=C(\\C)C[C@H](C)C[C@H](OC)[C@H]2O[C@@](O)(C(=O)C(=O)N3CCCC[C@H]3C(=O)O[C@H](/C(C)=C/[C@@H]3CC[C@@H](O)[C@H](OC)C3)[C@H](C)[C@@H](O)CC1=O)[C@H](C)C[C@@H]2OC", "note": "[FK, tacrolimus]", "values": [
      {"measurement": "Percent Inhibition", "setting": "[1]", "result": 31.9, "unit": "%"},
      {"measurement": "Percent Inhibition", "setting": "[2]; Mouse 1", "result": 3.5, "unit": "%"},
      {"measurement": "Percent Inhibition", "setting": "[2]; Mouse 2", "result": 13.0, "unit": "%"},
      {"measurement": "Percent Inhibition", "setting": "[3]; Mouse 1", "result": 0, "unit": "%"},
      {"measurement": "Percent Inhibition", "setting": "[3]; Mouse 2", "result": 0, "unit": "%"},
      {"measurement": "Percent Inhibition", "setting": "[4]; Mouse 3", "result": 0, "unit": "%"},
      {"measurement": "Percent Inhibition", "setting": "[4]; Mouse 4", "result": 0, "unit": "%"},
      {"measurement": "Percent Inhibition", "setting": "[5]", "result": 0, "unit": "%"},
      {"measurement": "Percent Inhibition", "setting": "[6]; Mouse 5", "result": 0, "unit": "%"},
      {"measurement": "Percent Inhibition", "setting": "[6]; Mouse 6", "result": 0, "unit": "%"},
      {"measurement": "Percent Inhibition", "setting": "[7]; Mouse 1", "result": 24.2, "unit": "%"},
      {"measurement": "Percent Inhibition", "setting": "[7]; Mouse 2", "result": 34.5, "unit": "%"},
      {"measurement": "Percent Inhibition of TCS", "setting": "MoAb CSA-1H6; CSA-1H6 TCS, Table 16, CSA-DVS-HSA conjugate", "result": 0, "unit": "%"},
      {"measurement": "Percent Inhibition of TCS", "setting": "MoAb CSA-2G9; CSA-2G9 TCS, Table 16, CSA-DVS-HSA conjugate", "result": 10.8, "unit": "%"},
      {"measurement": "Percent Inhibition of TCS", "setting": "MoAb AM1-2E10; AM1-2E10 TCS, Table 18, CSA-DVS-HSA coated plate", "result": 0, "unit": "%"},
      {"measurement": "Percent Inhibition of TCS", "setting": "MoAb AM1-7F5; AM1-7F51, TCS, Table 18, CSA-DVS-HSA coated plate", "result": 26.0, "unit": "%"},
      {"measurement": "Percent Inhibition of TCS", "setting": "MoAb AM19-1-7E12-1", "result": 6.3, "unit": "%"},
      {"measurement": "Percent Inhibition of TCS", "setting": "MoAb AM19-1-7E12-2", "result": 3.2, "unit": "%"}
    ]}
  ]
}
